# Tests used:
# [1] = Intrinsic clearance in human liver microsomes at 1 uM measured upto 30 mins by LC/MS analysis; type: ADME, Microsome; details: read-out: CLH (converted)
# [2] = molecular target: Cyclin-dependent kinase 1/cyclin B1 (Homo sapiens, UniProt P06493); test: Inhibition of N-terminal GST-tagged full length human CDK1 (1 to 297 residues)/human Cyclin B1 (1 to 433 residues) expressed in baculovirus infected Sf21 cells incubated for 60 mins in presence of ATP by HTRF assay
# CDK6/cyclin D3 = CDK6/cyclin D3 (Homo sapiens, UniProt Q00534); test: Inhibition of N-terminal GST-tagged human CDK6 (1 to 326 residues)/N-terminal 6-His fused human Cyclin D3 (1 to 292 residues) expressed in Sf9 insect cells incubated for 60 mins by HTRF assay
# [3] = molecular target: Cyclin-dependent kinase 2 (Homo sapiens, UniProt P24941); test: Inhibition of CDK2 in human whole blood spiked with CCNE1-amplified human COV318 cells assessed as reduction in retinoblastoma protein phosphorylation at S780 residue incubated overnight by HTRF microplate reader; type: cell-based
# [4] = molecular target: Cyclin-dependent kinase 4/cyclin D1 (Homo sapiens, UniProt P11802); test: Inhibition of N-terminal GST-tagged human CDK4 (4 to 303 residues)/N-terminal GST-tagged human Cyclin D1 (4 to 295 residues) expressed in Sf9 insect cells incubated for 60 mins in presence of ATP by HTRF assay
# [5] = Solubility of compound in SGF by HPLC analysis
# [6] = molecular target: Cyclin-dependent kinase 2/cyclin E1 (Homo sapiens, UniProt P24941); test: Inhibition of N-terminal GST-tagged full-length human CDK2(1 to 298 residues) /FLAG-tagged human Cyclin E1 (1 to 410 residues) expressed in baculovirus-infected Sf21 cells incubated for 60 mins in presence of ATP by HTRF assay
# Homo sapiens = species: Homo sapiens; test: Selectivity index, ratio of IC50 for inhibition of N-terminal GST-tagged full length human CDK1 (1 to 297 residues)/human Cyclin B1 (1 to 433 residues) expressed in baculovirus infected Sf21 cells to IC50 for inhibition of N-terminal GST-tagged full-length human CDK2(1 to 298 residues) /FLAG-tagged human Cyclin E1 (1 to 410 residues) expressed in baculovirus-infected Sf21 cells
# [7] = Protein binding in human plasma assessed as free fraction incubated for 2 hrs by LC-MS/MS analysis; type: ADME, cell-free
# [8] = molecular target: Tyrosine-protein kinase JAK2 (Homo sapiens, UniProt O60674); test: Inhibition of JAK2 (unknown origin) incubated for 90 mins in presence of ATP by fluorescence microplate reader
# [9] = Apparent permeability from apical to basolateral side in human Caco-2 cells at 50 uM incubated for 120 mins by LCMS analysis
# [10] = AUC in cynomolgus monkey at 3 mg/kg, po administered as cassette dose and measured upto 24 hrs by LC-MS/MS analysis; type: ADME, organism-based, Macaca fascicularis; details: in vivo
# [11] = Hepatic blood flow in cynomolgus monkey at 0.5 mg/kg, iv administered as cassette dose and measured upto 24 hrs by LC-MS/MS analysis; type: ADME, organism-based, Macaca fascicularis; details: in vivo
# [12] = Hepatic blood flow in Sprague-Dawley rat at 0.43 mg/kg, iv administered as cassette dose and measured upto 24 hrs by LC-MS/MS analysis; type: ADME, organism-based; details: in vivo
# [13] = Cmax in cynomolgus monkey at 3 mg/kg, po administered as cassette dose and measured upto 24 hrs by LC-MS/MS analysis; type: ADME, organism-based, Macaca fascicularis; details: in vivo
# [14] = AUC in Sprague-Dawley rat at 3 mg/kg, po administered as cassette dose and measured upto 24 hrs by LC-MS/MS analysis; type: ADME, organism-based; details: in vivo
# [15] = Oral bioavailability in Sprague-Dawley rat at 3 mg/kg administered as cassette dose and measured upto 24 hrs by LC-MS/MS analysis; type: ADME, organism-based; details: in vivo
# [16] = Volume of distribution at steady state in cynomolgus monkey at 0.5 mg/kg, iv administered as cassette dose and measured upto 24 hrs by LC-MS/MS analysis; type: ADME, organism-based, Macaca fascicularis; details: in vivo, read-out: Vdss
# [17] = Half-life in cynomolgus monkey at 0.5 mg/kg, iv administered as cassette dose and measured upto 24 hrs by LC-MS/MS analysis; type: ADME, organism-based, Macaca fascicularis; details: in vivo
# [18] = Volume of distribution at steady state in Sprague-Dawley rat at 0.43 mg/kg, iv administered as cassette dose and measured upto 24 hrs by LC-MS/MS analysis; type: ADME, organism-based; details: in vivo, read-out: Vdss
# [19] = Half-life in Sprague-Dawley rat at 0.43 mg/kg, iv administered as cassette dose and measured upto 24 hrs by LC-MS/MS analysis; type: ADME, organism-based; details: in vivo
# [20] = Oral bioavailability in cynomolgus monkey at 3 mg/kg administered as cassette dose and measured upto 24 hrs by LC-MS/MS analysis; type: ADME, organism-based, Macaca fascicularis; details: in vivo
# [21] = Cmax in Sprague-Dawley rat at 3 mg/kg, po administered as cassette dose and measured upto 24 hrs by LC-MS/MS analysis; type: ADME, organism-based; details: in vivo
# [22] = Half-life in Sprague-Dawley rat at 0.5 mg/kg, iv administered as cassette dose and measured upto 24 hrs by LC-MS/MS analysis; type: ADME, organism-based; details: in vivo
# [23] = Volume of distribution at steady state in Sprague-Dawley rat at 0.5 mg/kg, iv administered as cassette dose and measured upto 24 hrs by LC-MS/MS analysis; type: ADME, organism-based; details: in vivo, read-out: Vdss
# [24] = Oral bioavailability in cynomolgus monkey at 1.5 mg/kg administered as cassette dose and measured upto 24 hrs by LC-MS/MS analysis; type: ADME, organism-based, Macaca fascicularis; details: in vivo
# [25] = AUC in cynomolgus monkey at 1.5 mg/kg, po administered as cassette dose and measured upto 24 hrs by LC-MS/MS analysis; type: ADME, organism-based, Macaca fascicularis; details: in vivo
# [26] = Hepatic blood flow in Sprague-Dawley rat at 0.5 mg/kg, iv administered as cassette dose and measured upto 24 hrs by LC-MS/MS analysis; type: ADME, organism-based; details: in vivo
# [27] = Cmax in cynomolgus monkey at 1.5 mg/kg, po administered as cassette dose and measured upto 24 hrs by LC-MS/MS analysis; type: ADME, organism-based, Macaca fascicularis; details: in vivo
Compound,CLint scaled at 1 µM [1] [mL/min/kg],IC50 [2] [nM],IC50 (CDK6/cyclin D3) [nM],IC50 [3] [nM],IC50 [4] [nM],solubility [5] [µg/mL],IC50 [6] [nM],Ratio IC50 (Homo sapiens),fraction unbound at 2 h [7],"Papp A→B at 2 h, 50 µM [9] [×10⁻⁶ cm/s]",other results
CS(=O)(=O)N1CCC(Nc2ncc(C(F)(F)F)c(-c3cnn(C4CCCCC4)c3)n2)CC1,18.3,257,10,5050,3.2,11,2,130,,,
CS(=O)(=O)N1CCC(Nc2ncc(C(F)(F)F)c(-c3cnn(-c4ccc(C#N)cc4Cl)c3)n2)CC1,8.33,,,,,,,,0.012,,
CS(=O)(=O)N1CCC(Nc2ncc(C(F)(F)F)c(-c3cnn(C4CCOCC4)c3)n2)CC1,,407,,,,,3.2,130,,,IC50 [8]: > 10000 nM
CS(=O)(=O)N1CCC(Nc2ncc(C(F)(F)F)c(-c3cnn(-c4ccccc4F)c3)n2)CC1,< 8.33,,31,5110,14,46,,,,,
Cn1cc(S(=O)(=O)N2CCC(Nc3ncc(C(F)(F)F)c(-c4cnn(CC(F)(F)F)c4)n3)CC2)cn1,8.33,,,,,< 1,,,0.059,19,
CC(C)(O)Cn1cc(-c2nc(NC3CCN(S(C)(=O)=O)CC3)ncc2C(F)(F)F)cn1,< 8.33,63,160,1210,37,842,0.42,150,,,
CS(=O)(=O)N1CCC(Nc2ncc(C(F)(F)F)c(-c3cnn(CC(F)(F)F)c3)n2)CC1,< 8.33,205,22,709,11,3,1.8,110,,,
CN1CCC(n2cc(-c3nc(NC4CCN(S(C)(=O)=O)CC4)ncc3C(F)(F)F)cn2)CC1,11.7,174,153,708,20,> 400,6.1,29,,,
CS(=O)(=O)N1CCC(Nc2ncc(C(F)(F)F)c(-c3cnn(-c4ccccc4Cl)c3)n2)CC1,16.7,90,24,823,10,,0.56,160,,,
Cn1cnc(S(=O)(=O)N2CCC(Nc3ncc(C#N)c(-c4cnn(CC(F)(F)F)c4)n3)CC2)c1,< 8.33,,,,,5,,,,0.6,
Cn1cnc(S(=O)(=O)N2CCC(Nc3ncc(C(F)(F)F)c(-c4cnn(CC(F)(F)F)c4)n3)CC2)c1,10,,,,,322,,,0.076,5.4,AUC at 24 h [10]: 7.59 µM·h; QH [11]: 4.3%; QH [12]: 12%; Cmax [13]: 778 nM; AUC at 24 h [14]: 6.95 µM·h; bioavailability [15]: 48%; Vd [16]: 0.37 L/kg; half-life [17]: 3.2 h; Vd [18]: 1.4 L/kg; half-life [19]: 3.3 h; bioavailability [20]: 8%; Cmax [21]: 813 nM
CC(C)(O)Cn1cc(-c2nc(NC3CCN(S(=O)(=O)C4CC4)CC3)ncc2C#N)cn1,< 8.33,,,,,41,,,0.35,4.3,
N#Cc1cnc(NC2CCN(S(=O)(=O)c3ccccn3)CC2)nc1-c1cnn(CC(F)(F)F)c1,13.3,,,,,< 1,,,0.035,18,
Cc1cnc(Nc2ccc(NS(C)(=O)=O)cc2)nc1-c1cnn(C(CC#N)C2CCCC2)c1 (racemic),,,,,,,607,,,,IC50 [8]: < 1 nM
CS(=O)(=O)N1CCC(Nc2ncc(Cl)c(-c3cnn(C4CCOCC4)c3)n2)CC1,,1020,,,,,16,,,,IC50 [8]: > 10000 nM
CNCc1ccc(-n2cc(-c3nc(NC4CCN(S(C)(=O)=O)CC4)ncc3C#N)cn2)c(Cl)c1,10,,,,,,,,0.33,,QH [11]: 26%; half-life [22]: 3.8 h; AUC at 24 h [14]: 3.5 µM·h; Vd [23]: 5.7 L/kg; bioavailability [15]: 69%; bioavailability [24]: 20%; AUC at 24 h [25]: 0.923 µM·h; QH [26]: 36%; Vd [16]: 4.4 L/kg; Cmax [27]: 93 nM; half-life [17]: 6 h; Cmax [21]: 412 nM
